US10842892B2, “Methods and apparatus for synthesizing imaging agents, and intermediates thereof” (Lantheus Medical Imaging, Inc., priority 2010, dated 2020)
“And” between values parts separate entries of the source, which are not always exact repeats. Equal entries are not always repeated.

What was measured:
anesthetized naive dogs = test: cardiovascular changes in anesthetized naive dogs; type: in vivo, dog; conditions: intravenous injection, unpublished data
patients = test: Phase 2 clinical safety of imaging agent 1 injection; type: in vivo, human
myocardial blood flow = conditions: humans, assumed, equivalent to pre-clinical studies; cited from earlier work
[1] = tested on: stress induced myocardial perfusion abnormalities; test: rest-stress imaging agent 1 PET versus Tc-99m Sestamibi SPECT MPI, single center; type: in vivo, human; conditions: myocardial segments supplied by diseased coronary arteries, 13 patients
Experimental: Thirteen patients, from a single center, underwent rest-stress Tc-99m Sestamibi SPECT MPI, rest-stress imaging agent 1 PET MPI and coronary angiography. In each patient, 17 myocardial segments were visually scored for rest and stress images by independent observers who were blinded to all other results. For each patient, summed stress scores (SSS), summed rest scores (SRS), and summed difference scores (SDS) were determined from segmental scores. Percent narrowing in each coronary artery was evaluated blindly and 70% luminal diameter narrowing was considered significant.

[2] = syringe adsorption of imaging agent 1; type: physicochemical; conditions: three hours, ambient temperature
Experimental: The two sets of filled syringes were maintained at ambient temperature and humidity for a period of three hours, at which time the contents were injected into a clean 5 cc glass vial; a consistent volume of imaging agent 1 (0.1 mL) remained in the hub of each syringe. The total radioactivity content of both the vial and syringe were measured, decay corrected and the percent retention calculated. The difference in percent retained activity is statistically significant at the 95% confidence level (i.e. Prob>|t| 0.0005).

control and MI rabbits = test: cardiovascular evaluation (ECG, arterial pressure) after injection in control and MI rabbits; type: in vivo, rabbit
Experimental: PET images and cardiovascular parameters were evaluated in both normal and MI rabbits. Prior to imaging, the rabbit was anesthetized with ketamine (25 mg/Kg, im) and xylazine (5 mg/Kg, im) and the marginal ear vein was catheterized for imaging agent 1 injection. The right femoral artery was isolated and canulated with a Millar catheter (SPC340, Millar Instruments, Houston, Tex.) for arterial pressure measurement. Then the animal was positioned in a microPET camera (Focus220, CTI Molecular Imaging, Inc. Knoxville, Tenn.) for cardiac imaging. The Millar catheter was connected to a computer driven data acquisition system (MP35, BIOPAC Systems, Goleta, Calif.) for recording of mean arterial pressure (MAP), and systolic and diastolic arterial pressure (SAP and DAP). In addition, electrocardiogram (ECG) was also recorded with 3 non-invasive limb leads in lead II configuration using the BIOPAC system. Heart rate (HR) and QT interval were derived from ECG recording. After a stabilization period, cardiovascular parameters: MAP, SBP, DBP and ECG, were recorded 5 minutes before imaging agent 1 intravenous injection (˜1.5 mCi) and the recording continued for additional 20 minutes post-injection. The rabbit was imaged for 30 minutes.
Data are expressed as mean±SD and unpaired student t-test (assuming unequal variances) was used for comparison of baseline values between control and MI rabbits. p<0.05 was considered statistically significant. At each timepoint (before and 1-, 5-, 10- and 20-minute after imaging agent 1 injection), MAP, SAP and DAP measured intraarterially averaged every 10-second, and HR and QTc interval derived from ECG recording averaged every 12 heart beats. The QT interval was manually defined by one investigator and QTc was generated from QT corrected by RR interval using Fridericia method (QTc=QT/RR1/3).9

heart wall = conditions: primate-derived estimates; cited from earlier work

CC(C)(C)n1ncc(OCc2ccc(COCC[18F])cc2)c(Cl)c1=O [imaging agent 1, 2-t-butyl-4-chloro-5-[4-(2-(^18F)fluoroethoxymethyl)-benzyloxy]-2H-pyridazin-3-1]
dose without cardiovascular changes (MAP, HR, left ventricular contractility etc) (anesthetized naive dogs): ≤ 0.01 mg/kg | AEs judged to be related to the study drug (patients; 143 patients): 7 | patients with AEs judged to be related to the study drug (patients; 143 patients): 2 | seriousness of related AEs (patients; 143 patients): none were serious | treatment emergent adverse events (AEs) reported (patients; 143 patients): 100 | ECG at rest: effect on heart rate, PR interval, QRS duration, QTcF duration (patients; human, in vivo): no evidence of any clinically relevant effect | patients reporting treatment emergent adverse events (patients; of 143 patients): 61 | first pass extraction fraction (myocardial blood flow): 0.94 | SDS [1]: 12.3 ± 7 | SRS [1]: 3.8 ± 6.6 | SSS [1]: 16.1 ± 7.8 | Retained Activity in syringe ([2]; B&D (Becton & Dickinson) three-component syringe): 35.2% and 38.9% and 32.4% | Retained Activity in syringe ([2]; HSW (Henke Sass Wolf) two-component syringe): 11.3% and 7.0% and 5.1% | QTc, change from baseline after injection (control and MI rabbits; Control rabbits (n = 3), 1 min): 2 ± 15 ms | QTc, change from baseline after injection (control and MI rabbits; Control rabbits (n = 3), 5 min): -1 ± 11 ms | QTc, change from baseline after injection (control and MI rabbits; Control rabbits (n = 3), 10 min): 6 ± 20 ms | QTc, change from baseline after injection (control and MI rabbits; Control rabbits (n = 3), 20 min): 9 ± 15 ms | Diastolic AP, change from baseline after injection (control and MI rabbits; Control rabbits, 1 min): 0 ± 1 mmHg | Heart rate, change from baseline after injection (control and MI rabbits; Control rabbits, 1 min): −4 ± 2 beat/min | Mean AP, change from baseline after injection (control and MI rabbits; Control rabbits, 1 min): 0 ± 0 mmHg | Systolic AP, change from baseline after injection (control and MI rabbits; Control rabbits, 1 min): 0 ± 1 mmHg | Diastolic AP, change from baseline after injection (control and MI rabbits; Control rabbits, 5 min): −1 ± 2 mmHg | Heart rate, change from baseline after injection (control and MI rabbits; Control rabbits, 5 min): −2 ± 1 beat/min | Mean AP, change from baseline after injection (control and MI rabbits; Control rabbits, 5 min): −2 ± 0 mmHg | Systolic AP, change from baseline after injection (control and MI rabbits; Control rabbits, 5 min): −2 ± 1 mmHg | Diastolic AP, change from baseline after injection (control and MI rabbits; Control rabbits, 10 min): 0 ± 5 mmHg | Heart rate, change from baseline after injection (control and MI rabbits; Control rabbits, 10 min): −2 ± 4 beat/min | Mean AP, change from baseline after injection (control and MI rabbits; Control rabbits, 10 min): −2 ± 3 mmHg | Systolic AP, change from baseline after injection (control and MI rabbits; Control rabbits, 10 min): −1 ± 6 mmHg | Diastolic AP, change from baseline after injection (control and MI rabbits; Control rabbits, 20 min): 0 ± 5 mmHg | Heart rate, change from baseline after injection (control and MI rabbits; Control rabbits, 20 min): −4 ± 4 beat/min | Mean AP, change from baseline after injection (control and MI rabbits; Control rabbits, 20 min): −1 ± 6 mmHg | Systolic AP, change from baseline after injection (control and MI rabbits; Control rabbits, 20 min): 0 ± 5 mmHg | QTc, change from baseline after injection (control and MI rabbits; MI rabbits (n = 4), 1 min): 8 ± 5 ms | QTc, change from baseline after injection (control and MI rabbits; MI rabbits (n = 4), 5 min): 4 ± 6 ms | QTc, change from baseline after injection (control and MI rabbits; MI rabbits (n = 4), 10 min): 4 ± 8 ms | QTc, change from baseline after injection (control and MI rabbits; MI rabbits (n = 4), 20 min): 3 ± 12 ms | Diastolic AP, change from baseline after injection (control and MI rabbits; MI rabbits, 1 min): 1 ± 1 mmHg | Heart rate, change from baseline after injection (control and MI rabbits; MI rabbits, 1 min): 6 ± 5 beat/min | Mean AP, change from baseline after injection (control and MI rabbits; MI rabbits, 1 min): 2 ± 1 mmHg | Systolic AP, change from baseline after injection (control and MI rabbits; MI rabbits, 1 min): 1 ± 2 mmHg | Diastolic AP, change from baseline after injection (control and MI rabbits; MI rabbits, 5 min): 2 ± 2 mmHg | Heart rate, change from baseline after injection (control and MI rabbits; MI rabbits, 5 min): 3 ± 8 beat/min | Mean AP, change from baseline after injection (control and MI rabbits; MI rabbits, 5 min): 2 ± 2 mmHg | Systolic AP, change from baseline after injection (control and MI rabbits; MI rabbits, 5 min): 2 ± 2 mmHg | Diastolic AP, change from baseline after injection (control and MI rabbits; MI rabbits, 10 min): 1 ± 1 mmHg | Heart rate, change from baseline after injection (control and MI rabbits; MI rabbits, 10 min): 1 ± 6 beat/min | Mean AP, change from baseline after injection (control and MI rabbits; MI rabbits, 10 min): −1 ± 2 mmHg | Systolic AP, change from baseline after injection (control and MI rabbits; MI rabbits, 10 min): 0 ± 1 mmHg | Diastolic AP, change from baseline after injection (control and MI rabbits; MI rabbits, 20 min): 2 ± 2 mmHg | Heart rate, change from baseline after injection (control and MI rabbits; MI rabbits, 20 min): −7 ± 10 beat/min | Mean AP, change from baseline after injection (control and MI rabbits; MI rabbits, 20 min): 2 ± 3 mmHg | Systolic AP, change from baseline after injection (control and MI rabbits; MI rabbits, 20 min): 1 ± 7 mmHg | effect on MAP, SAP and DAP (control and MI rabbits; MI rabbits, during and after administration): no alterations of these parameters were observed | effect on ECG waveform, cardiac rhythm, HR and QTc interval (control and MI rabbits; control or MI rabbits, 1-, 5-, 10- and 20-minute post iv injection): did not alter | effect on MAP, SAP and DAP (control and MI rabbits; control rabbits): did not induce changes | estimated human radiation dose for the heart wall (heart wall): 0.067 mSv/MBq
